Measured values: patent US20030096379A1, “Method for producing tryptamine derivatives” (priority 2001, published 2003)

Columns and labels:
[1] = target: T1, synAAAD (synthetic gene based on pkAAAD protein sequence) (Sus scrofa, UniProt P80041); test: Substrate screen for tryptophan decarboxylation, SynAAAD; assay type: biochemical; parameters: key: +: a clear ninhydrin-positive spot at the Rf of standard tryptophan derivatives after 16-65 h; (+): a weak spot in the product region; −: no product observed; NR: experiment not run; settings: tryptophan derivative, PLP, pH 7.5, 37° C.
T1 construct: made in house; host or cells: E. coli (pET-15 vector)
T1 sequence (P80041 1-486): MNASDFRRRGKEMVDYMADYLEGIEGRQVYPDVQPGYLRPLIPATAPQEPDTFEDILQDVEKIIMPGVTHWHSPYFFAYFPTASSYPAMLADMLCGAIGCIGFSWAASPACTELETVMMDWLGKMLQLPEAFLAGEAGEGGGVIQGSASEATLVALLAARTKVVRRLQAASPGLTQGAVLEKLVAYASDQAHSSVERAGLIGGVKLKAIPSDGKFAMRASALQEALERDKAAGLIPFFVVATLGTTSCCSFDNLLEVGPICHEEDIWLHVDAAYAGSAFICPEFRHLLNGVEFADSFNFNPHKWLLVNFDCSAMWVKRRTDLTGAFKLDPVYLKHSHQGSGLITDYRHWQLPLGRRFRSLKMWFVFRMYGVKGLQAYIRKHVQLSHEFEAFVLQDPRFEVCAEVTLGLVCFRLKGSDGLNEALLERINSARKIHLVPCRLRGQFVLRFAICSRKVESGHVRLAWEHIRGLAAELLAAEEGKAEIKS
Method: A mixture containing 1 μmole of the tryptophan derivative, 0.05 μmole of PLP and 50 μmol of L-serine in 40 mM pH 7.5 KPi buffer was warmed to 37° C., then enzyme solution was added to give a final volume of 1 mL. Aliquots (100 HL) were quenched at intervals and were evaporated in a Savant Speed-vac as in Example 6. For TLC analysis, CH2Cl2/EtOH/H2O/HOAc 49:49:1:1 was used as the solvent. The plates were visualized with short-wave UV light and ninhydrin as in Example 6.
HPLC techniques were used to monitor the decarboxylation of substituted tryptophans. Mass spectral analysis of the collected HPLC peaks was used to confirm the identity of several tryptamine derivatives, as shown in Table 5.

[2] = target: T2, pig kidney aromatic amino acid decarboxylase (pkAAAD) (Sus scrofa, UniProt P80041); test: Substrate screen for tryptophan decarboxylation, pkAAAD; assay type: biochemical; parameters: key: +: a clear ninhydrin-positive spot at the Rf of standard tryptophan derivatives after 16-65 h; (+): a weak spot in the product region; −: no product observed; NR: experiment not run; settings: tryptophan derivative, PLP, pH 7.5, 37° C.
T2 construct: Frozen tissue was partially thawed in lysis buffer, then it was extracted and partially purified; from tissue; host or cells: pig kidney
T2 sequence (P80041 1-486): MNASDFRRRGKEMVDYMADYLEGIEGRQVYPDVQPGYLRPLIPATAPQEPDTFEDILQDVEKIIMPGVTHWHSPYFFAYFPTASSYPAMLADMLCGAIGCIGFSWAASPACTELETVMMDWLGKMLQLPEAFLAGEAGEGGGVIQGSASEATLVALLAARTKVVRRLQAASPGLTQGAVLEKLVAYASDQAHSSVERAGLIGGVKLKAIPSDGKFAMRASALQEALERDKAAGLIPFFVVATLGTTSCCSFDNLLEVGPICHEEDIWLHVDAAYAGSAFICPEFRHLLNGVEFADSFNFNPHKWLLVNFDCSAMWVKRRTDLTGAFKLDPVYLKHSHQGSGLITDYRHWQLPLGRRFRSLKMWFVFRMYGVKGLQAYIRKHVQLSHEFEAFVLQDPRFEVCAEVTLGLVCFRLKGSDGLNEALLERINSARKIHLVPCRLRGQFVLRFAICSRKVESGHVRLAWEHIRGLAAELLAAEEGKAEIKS

[3] = target: T3, E. coli DH5α tryptophan synthase (TrpBA) (Escherichia coli, UniProt P0A879); assay type: biochemical; parameters: key: +: a clear ninhydrin-positive spot at the Rf of standard tryptophan derivatives after 16-65 h; (+): a weak spot in the product region; −: no product observed; NR: experiment not run; settings: indole derivative + L-serine + PLP, 37° C., 16-65 h, ninhydrin
T3 construct: made in house; host or cells: E. coli LMG194 (pBAD) or BL-21 (pET)
T3 sequence (P0A879 whole entry): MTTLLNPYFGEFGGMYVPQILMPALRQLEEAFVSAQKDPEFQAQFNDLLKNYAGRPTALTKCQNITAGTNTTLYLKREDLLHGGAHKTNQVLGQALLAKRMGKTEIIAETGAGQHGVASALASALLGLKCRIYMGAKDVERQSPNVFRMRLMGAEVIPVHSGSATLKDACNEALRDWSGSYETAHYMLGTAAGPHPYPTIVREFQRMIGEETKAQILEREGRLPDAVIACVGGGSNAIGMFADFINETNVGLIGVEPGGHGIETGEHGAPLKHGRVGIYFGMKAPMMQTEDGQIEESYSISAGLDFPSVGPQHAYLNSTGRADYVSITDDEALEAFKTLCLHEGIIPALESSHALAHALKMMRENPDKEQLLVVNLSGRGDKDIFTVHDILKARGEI
T3 sequence (P0A877 whole entry, further chain): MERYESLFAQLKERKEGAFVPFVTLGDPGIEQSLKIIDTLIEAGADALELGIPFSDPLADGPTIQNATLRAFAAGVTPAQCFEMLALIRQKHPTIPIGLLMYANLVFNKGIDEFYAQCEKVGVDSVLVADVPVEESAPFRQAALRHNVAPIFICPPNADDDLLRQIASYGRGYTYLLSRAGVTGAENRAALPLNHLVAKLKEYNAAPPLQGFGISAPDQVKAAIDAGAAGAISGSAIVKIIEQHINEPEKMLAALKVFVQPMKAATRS
Method: (§1) A mixture containing 2 μmole of the indole derivative, 0.05 μmole of PLP and 50 μmol of L-serine in 40 mM KPi buffer in 8% v/v ethanol water, pH 7.5, was warmed to 37° C., then enzyme solution was added to give a final volume of 1 mL. Aliquots (100 μL) were quenched at intervals of 2, 6, and 24 hours or more in microcentrifuge capsules containing 25 μL of 6 M HCl. The quenched samples were evaporated in a Savant Speed-vac. The residues were resuspended in methanol/water (1:1, 50 μL) and analyzed by TLC on Silica gel GF254 plates alongside tryptophan and tryptamine standards, eluting with CH2Cl2/EtOH/H2O/HOAc 77:20:2:1. Products were visualized first by using short-wave UV light, then with ninhydrin spray reagent (1/1/98 w/v/v ninhydrin/HOAc/EtOH) followed by heating.
(§2) Substituted indoles were incubated with L-serine, PLP and enzyme (TrpBA or TnA) prior to TLC analysis as generally described in Example 6. Serine, which can be used instead of pyruvate and ammonia for tryptophan synthesis with TnA, was employed as the 3-carbon acid because pyruvate tended to obscure the tryptophan product spots when plates were visualized with ninhydrin. TnA-catalyzed formation of tryptophan was also faster when serine was the 3-carbon donor. Reaction rates for several substrates were also estimated by HPLC.
(§3) In Table 4, “+” indicates a clear ninhydrin-positive spot at the Rf of standard tryptophan derivatives after 16-65 h; “(+)” indicates a weak spot in the product region; “−” means no product observed, “NR” means experiment not run. ESMS=electrospray mass spectrometry. Unless otherwise indicated, the mass value given represents the singly-protonated molecular ion (M+1).

tryptophanase (TnA) = target: T4, tryptophanase (TnA) (Escherichia coli, UniProt P0A853); assay type: biochemical, E. coli; parameters: key: +: a clear ninhydrin-positive spot at the Rf of standard tryptophan derivatives after 16-65 h; (+): a weak spot in the product region; −: no product observed; NR: experiment not run; settings: indole derivative + L-serine + PLP, 37° C., 16-65 h, ninhydrin
T4 construct: made in house; host or cells: E. coli LMG194 (pBAD) or BL-21 (pET)
T4 sequence (P0A853 whole entry): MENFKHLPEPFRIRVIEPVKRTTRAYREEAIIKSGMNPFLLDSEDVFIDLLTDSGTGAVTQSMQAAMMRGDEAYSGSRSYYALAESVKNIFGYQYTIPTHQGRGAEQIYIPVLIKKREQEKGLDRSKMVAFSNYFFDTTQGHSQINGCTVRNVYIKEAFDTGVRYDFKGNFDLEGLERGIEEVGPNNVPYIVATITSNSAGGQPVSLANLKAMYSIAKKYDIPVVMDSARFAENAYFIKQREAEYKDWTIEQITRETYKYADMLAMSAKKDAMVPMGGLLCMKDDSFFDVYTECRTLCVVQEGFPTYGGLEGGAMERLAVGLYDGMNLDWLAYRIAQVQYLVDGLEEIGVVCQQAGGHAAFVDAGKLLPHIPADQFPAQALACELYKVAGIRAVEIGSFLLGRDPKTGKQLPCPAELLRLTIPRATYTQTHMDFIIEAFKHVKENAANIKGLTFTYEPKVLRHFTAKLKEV
Method: as §1, §2, §3

[4] = Decarboxylase activity of the enzyme preparations (Ehrlich's reagent); assay type: biochemical
Method: Tryptophan synthase activity was assayed by monitoring the increase in absorbance at 290 nm of a mixture containing serine, indole and PLP (Higgins, W., et al., Biochemistry, 1979, 18, 4827). TnA-catalyzed tryptophan synthesis was also measured by the 290 nm assay, while the tryptophan lyase reaction rate was measured by monitoring the reduction in NADH in reaction mixtures containing L-tryptophan and lactate dehydrogenase, indicating the amount of pyruvate released. Tryptophan decarboxylase was assayed colorimetrically by monitoring the sabsorbance at 580 nm produced by serotonin (AAADs) or tryptamine (TDCs) following treatment of reaction aliquots with Ehrlich's reagent (4-N,N-(dimethyl)aminobenzaldehyde in ethanolic HCl; Nakazawa, H.; Kumagi, H.; Yamada, H. Biochem Biophys. Res. Commun., 1974, 61, 75-82). Serotonin could be detected with approximately 5-fold higher sensitivity by this method as compared with tryptamine. The Ehrlich reagent assay using a microtiter plate format for simultaneous analysis of multiple enzyme samples may also be used. HPLC analysis was performed on acid-quenched reaction aliquots by using a base-deactivated C8 reversed-phase support (Shandon Hypersil BD8). HPLC analysis of acid-quenched aliquots permitted calculation of a rate ratio of 4.5 to 1 for pkAAAD-catalyzed DOPA decarboxylation relative to that of L-5-hydroxytryptophan, in good agreement with the accepted ratio of approximately 5:1. (See Sourkes, T. L. Methods Enzymol., 1987, 142, 170-178, which is incorporated herein by reference.)
A mixture (0.95 mL) containing L-5-hydroxytryptophan (2 mM), PLP (0.25 mM) and pH 7.5 KPi buffer (44 mM) was warmed to 37° C., then 50 μL of enzyme was added. Reaction aliquots were quenched in microcentrifuge capsules containing 50 μL each of 6M HCl to quench the enzyme reaction at 2, 5, and 20 min. Quenched aliquots were heated at 50° C. for 40 min with 750 μL each of Ehrlich's reagent (2:24:74 w/v/v […]: conc HCl: ethanol). Absorbance was read at 580-nm and compared with standards of serotonin (10-250 μM) or tryptamine (50 to 2000 μM).
Decarboxylase enzyme activity was determined using L-5-hydroxytryptophan as the substrate unless otherwise stated.

[5] = Table 2, L-5-hydroxytryptophan as substrate

COc1ccc2[nH]cc(CC(N)C(=O)O)c2c1 (racemic) [DL-5-methoxy-trp]
SynAAAD (decarboxylation substrate screen) [1]: (+)

NC(Cc1c[nH]c2ncccc12)C(=O)O (racemic) [DL-7-aza-trp]
pkAAAD (decarboxylation substrate screen) [2]: − | SynAAAD (decarboxylation substrate screen) [1]: −

Cc1ccc2[nH]c(C)cc2c1 [2,5-dimethyl-]
TrpBA (tryptophan product spot, TLC analysis) [3]: + | TnA (tryptophan product spot, TLC analysis) (tryptophanase (TnA)): −

Nc1cccc2[nH]ccc12 [4-amino-]
TrpBA (tryptophan product spot, TLC analysis) [3]: + | TnA (tryptophan product spot, TLC analysis) (tryptophanase (TnA)): +

Oc1cccc2[nH]ccc12 [4-hydroxy]
TrpBA (tryptophan product spot, TLC analysis) [3]: + | TnA (tryptophan product spot, TLC analysis) (tryptophanase (TnA)): +

O=[N+]([O-])c1cccc2[nH]ccc12 [4-nitro-]
TrpBA (tryptophan product spot, TLC analysis) [3]: − | TnA (tryptophan product spot, TLC analysis) (tryptophanase (TnA)): −

Nc1ccc2[nH]ccc2c1 [5-amino-]
TrpBA (tryptophan product spot, TLC analysis) [3]: − | TnA (tryptophan product spot, TLC analysis) (tryptophanase (TnA)): −

O=C(O)c1cc2cc(Br)ccc2[nH]1 [5-bromoindole-2-carboxylic acid]
TrpBA (tryptophan product spot, TLC analysis) [3]: −

Clc1ccc2[nH]ccc2c1 [5-chloro-]
TrpBA (tryptophan product spot, TLC analysis) [3]: + | TnA (tryptophan product spot, TLC analysis) (tryptophanase (TnA)): +

N#Cc1ccc2[nH]ccc2c1 [5-cyano-]
TrpBA (tryptophan product spot, TLC analysis) [3]: − | TnA (tryptophan product spot, TLC analysis) (tryptophanase (TnA)): −

Oc1ccc2[nH]ccc2c1 [5-hydroxy-]
TrpBA (tryptophan product spot, TLC analysis) [3]: + | TnA (tryptophan product spot, TLC analysis) (tryptophanase (TnA)): +

COc1ccc2[nH]c(C)cc2c1 [5-methoxy-2-methyl-]
TrpBA (tryptophan product spot, TLC analysis) [3]: + | TnA (tryptophan product spot, TLC analysis) (tryptophanase (TnA)): −

O=[N+]([O-])c1ccc2[nH]ccc2c1 [5-nitro-]
TrpBA (tryptophan product spot, TLC analysis) [3]: − | TnA (tryptophan product spot, TLC analysis) (tryptophanase (TnA)): −

Clc1ccc2cc[nH]c2c1 [6-chloroindole]
TrpBA (tryptophan product spot, TLC analysis) [3]: − | TnA (tryptophan product spot, TLC analysis) (tryptophanase (TnA)): +

Fc1ccc2cc[nH]c2c1 [6-fluoroindole]
TrpBA (tryptophan product spot, TLC analysis) [3]: + | TnA (tryptophan product spot, TLC analysis) (tryptophanase (TnA)): (+)

COc1ccc2cc[nH]c2c1 [6-methoxyindole]
TrpBA (tryptophan product spot, TLC analysis) [3]: + | TnA (tryptophan product spot, TLC analysis) (tryptophanase (TnA)): (+)

Clc1cccc2cc[nH]c12 [7-chloro]
TrpBA (tryptophan product spot, TLC analysis) [3]: + | TnA (tryptophan product spot, TLC analysis) (tryptophanase (TnA)): −

O=C(O)c1ccc2[nH]ccc2c1 [Indole-5-carboxylic acid]
TrpBA (tryptophan product spot, TLC analysis) [3]: − | TnA (tryptophan product spot, TLC analysis) (tryptophanase (TnA)): −

N[C@@H](Cc1c[nH]c2ccc(CO)cc12)C(=O)O [L-5-(hydroxymethyl)-trp]
SynAAAD (decarboxylation substrate screen) [1]: −

indoxyl acetate [4-acetoxy-[indoxyl acetate]]
TrpBA (tryptophan product spot, TLC analysis) [3]: + | TnA (tryptophan product spot, TLC analysis) (tryptophanase (TnA)): +

B1: synAAAD: enzyme from synthetic gene optimized for E. coli expression, based on the pkAAAD protein sequence (protein, UniProt P80041 1-486, looked up)
Aromatic-L-amino-acid …: MNASDFRRRGKEMVDYMADYLEGIEGRQVYPDVQPGYLRPLIPATAPQEPDTFEDILQDVEKIIMPGVTHWHSPYFFAYFPTASSYPAMLADMLCGAIGCIGFSWAASPACTELETVMMDWLGKMLQLPEAFLAGEAGEGGGVIQGSASEATLVALLAARTKVVRRLQAASPGLTQGAVLEKLVAYASDQAHSSVERAGLIGGVKLKAIPSDGKFAMRASALQEALERDKAAGLIPFFVVATLGTTSCCSFDNLLEVGPICHEEDIWLHVDAAYAGSAFICPEFRHLLNGVEFADSFNFNPHKWLLVNFDCSAMWVKRRTDLTGAFKLDPVYLKHSHQGSGLITDYRHWQLPLGRRFRSLKMWFVFRMYGVKGLQAYIRKHVQLSHEFEAFVLQDPRFEVCAEVTLGLVCFRLKGSDGLNEALLERINSARKIHLVPCRLRGQFVLRFAICSRKVESGHVRLAWEHIRGLAAELLAAEEGKAEIKS
modifications: codon-optimized synthetic gene
Crude specific activity [4, 5]: 0.18 units/mg | Purified specific activity [4, 5]: 0.3 Units/mg | Crude specific activity ([4]; Table 3, decarboxylases): 0.18 units/mg | specific activity in crude extracts ([4]; crude extracts): 0.1-0.2 units/mg

B2: pkAAAD: aromatic amino acid decarboxylase extracted from pig kidney tissue, E.C. 4.1.1.28 (protein, UniProt P80041 1-486, looked up)
Aromatic-L-amino-acid …: MNASDFRRRGKEMVDYMADYLEGIEGRQVYPDVQPGYLRPLIPATAPQEPDTFEDILQDVEKIIMPGVTHWHSPYFFAYFPTASSYPAMLADMLCGAIGCIGFSWAASPACTELETVMMDWLGKMLQLPEAFLAGEAGEGGGVIQGSASEATLVALLAARTKVVRRLQAASPGLTQGAVLEKLVAYASDQAHSSVERAGLIGGVKLKAIPSDGKFAMRASALQEALERDKAAGLIPFFVVATLGTTSCCSFDNLLEVGPICHEEDIWLHVDAAYAGSAFICPEFRHLLNGVEFADSFNFNPHKWLLVNFDCSAMWVKRRTDLTGAFKLDPVYLKHSHQGSGLITDYRHWQLPLGRRFRSLKMWFVFRMYGVKGLQAYIRKHVQLSHEFEAFVLQDPRFEVCAEVTLGLVCFRLKGSDGLNEALLERINSARKIHLVPCRLRGQFVLRFAICSRKVESGHVRLAWEHIRGLAAELLAAEEGKAEIKS
Crude specific activity [4, 5]: 0.05 units/mg | Purified specific activity [4, 5]: 0.2 Units/mg | Crude specific activity ([4]; Table 3, decarboxylases): 0.05 units/mg
